Legend:
[1] = tested on: distress vocalisations in guinea-pig pups; test: Separation-induced vocalisation assay; type: in vivo; conditions: p.o.
Method: Male and female guinea-pigs pups are housed in family groups with their mothers and littermates throughout the study. Experiments are commenced […] when the pups are 2 weeks old. Before entering an experiment, the pups are screened to ensure that a vigorous vocalisation response is reproducibly elicited following maternal separation. The pups are placed individually in an observation cage (55 cm×39 cm×19 cm) in a room physically isolated from the home cage for 15 minutes and the duration of vocalisation during this baseline period is recorded. Only animals which vocalise for longer than 5 minutes are employed for drug challenge studies (approximately 50% of available pups may fail to reach this criterion). On test days each pup receives an oral dose or an s.c. or i.p. injection of test compound or vehicle and is then immediately returned to the home cage with its mother and siblings for 30 to 60 minutes (or for up to 4 hours following an oral dose, dependent upon the oral pharmacokinetics of the test compound) before social isolation for 15 minutes as described above. The duration of vocalisation on drug treatment days is expressed as a percentage of the pre-treatment baseline value for each animal. The same subjects are retested once weekly for up to 6 weeks. Between 6 and 8 animals receive each test compound at each dose tested.

[2] = tested on: foot tapping in gerbils induced by central injection of an NK-1 agonist; test: Gerbil foot-tapping assay; type: in vivo; conditions: i.v.
From the text: CNS-penetrant NK-1 receptor antagonists for use in the present invention can be identified by their ability to inhibit foot tapping in gerbils induced by anxiogenic agents (such as pentagastrin) or central infusion of NK-1 receptor agonists such as GR73632, or caused by aversive stimulation such as foot shock or single housing, based on the method of Rupniak & Williams, Eur. J. Pharmacol., 1994, 265, 179.
Male or female Mongolian gerbils (35-90 g) are anaesthetised by inhalation of an isoflurane/oxygen mixture to permit exposure of the jugular vein in order to permit administration of test compounds or vehicle in an injection volume of 5 ml/kg i.v. Alternatively, test compounds may be administered orally or by subcutaneous or intraperitoneal routes. A skin incision is then made in the midline of the scalp to expose the skull. […] The duration and/or intensity of hind foot tapping is then recorded continuously for approximately 5 minutes. Alternatively, the ability of test compounds to inhibit foot tapping evoked by aversive stimulation, such as foot shock or single housing, may be studied using a similar method of quantification.

[3] = tested on: cisplatin-induced emesis in ferrets; test: Ferret emesis assay; type: in vivo; conditions: p.o.
Method: Individually housed male ferrets (1.0-2.5 kg) are dosed orally by gavage with test compound. Ten minutes later they are fed with approximately 100 g of tinned cat food. At 60 minutes following oral dosing, cisplatin (10 mg/kg) is given i.v. via a jugular vein catheter inserted under a brief period of halothane anaesthesia. The catheter is then removed, the jugular vein ligated and the skin incision closed. The ferrets recover rapidly from the anaesthetic and are mobile within 10-20 minutes. The animals are observed continuously during recovery from the anaesthetic and for 4 hours following the cisplatin injection, after which time the animals are killed humanely. The numbers of retches and vomits occurring during the 4 hours after cisplatin administration are recorded by trained observers.

[4] = Food intake in ad lib fed ferrets, Compound A and Compound B (FIG. 1); type: in vivo, ferret; conditions: oral, Compound B 10 mg/kg, Compound A 60 mg/kg or the combination, 1, 2, 4 and 24 hours after dosing
Method: FIG. 1. […] All food intake data were analyzed by two-tailed T-TEST.
(§1) Food intake (FI) was monitored at 1, 2, 4, and 24, hours after dosing. Body weight (BWT) was measured at the time of dosing and at 24 hours. Any incidence of emesis or abnormal behavior by subjects was recorded. Two studies were combined to generate the data.

[5] = tested on: ferrets; test: MC4R associated emesis in ferrets, Compound A and Compound B (Table 1); type: in vivo, ferret; conditions: Compound B 10 mg/kg PO; for % Emesis: ferrets; for # of Ferrets: ferrets with emesis/dosed
Method: as §1

| SMILES | guinea-pig vocalisation (4 hr. pre-treatment) ID50 [1] [mg/kg] | gerbil foot-tapping (5 mins.) ID50 ([2]; 5 mins.) [mg/kg] | gerbil foot-tapping (24 hrs.) ID50 ([2]; 24 hrs.) [mg/kg] | ferret emesis ID90 [3] [mg/kg] | Food intake [4] | % Emesis ([5]; 1 hour) [%] | % Emesis ([5]; 2 hours) [%] | % Emesis ([5]; 4 hours) [%] | % Emesis ([5]; Total) [%] | # of Ferrets ([5]; 1 hour) | # of Ferrets ([5]; 2 hours) | # of Ferrets ([5]; 4 hours) | # of Ferrets ([5]; Total) |
| --- | --- | --- | --- | --- | --- | --- | --- | --- | --- | --- | --- | --- | --- |
| C[C@@H](O[C@H]1OCCN(Cc2nc(=O)[nH][nH]2)[C@H]1c1ccc(F)cc1)c1cc(C(F)(F)F)cc(C(F)(F)F)c1 [2-(R)-(1-(R)-(3,5-bis(trifluoromethyl)phenyl)ethoxy)-3-(S)-(4-fluorophenyl)-4-(3-(5-oxo-1H,4H-1,2,4-triazolo)methyl)morpholine] | 0.73 | 0.36 | 0.33 | < 3 |  |  |  |  |  |  |  |  |  |
| C[C@@H](O[C@H]1OCCN(Cc2nn[nH]c2CN(C)C)[C@H]1c1ccc(F)cc1)c1cc(C(F)(F)F)cc(C(F)(F)F)c1 [Compound B, 2-(R)-(1-(R)-(3,5-bis(trifluoromethyl)phenyl)ethoxy)-4-(5-(dimethylamino)methyl-1,2,3-triazol-4-yl)methyl-3-(S)-(4-fluorophenyl)morpholine] |  |  |  |  | significantly reduced in the NK1 dose group at 24 hours only | 0 | 0 | 0 | 0 | 0/9 | 0/9 | 0/9 | 0/9 |
